Test results published in patent US7595158B2, “Bcl2L12 polypeptide activators and inhibitors” (Dana-Farber Cancer Institute, Inc., priority 2003, dated 2009).

What was measured:
Format in all cases: cell-based, human
LN443 cells = experiment: STS-induced DNA fragmentation (sub-G1, FACS) in LN443 cells; settings: LN443, 2.0 μM STS; control siRNA about 40 percent
Experimental: (§1) LNZ308 and LN443 glioma cell lines transfected with control siRNA, Bcl2L12-targeting siRNA #4, or Bcl2L12-targeting siRNA #5 were treated with 0, 0.2, 0.5, 1.0, or 2.0 μM STS. DNA-fragmentation was assessed by quantifying sub-G1 peaks using FACS analysis. siRNA-mediated knockdown of Bcl2L12 polypeptide sensitized the glioma cell lines to STS-induced apoptosis. […] The maximum percent DNA fragmentation was about 30 percent, 45 percent, and 55 percent in LNZ308 cells transfected with control siRNA, siRNA #4, or siRNA #5, respectively, and treated with 2.0 μM STS (FIG. 10B). […] The maximum percent DNA fragmentation was about 40 percent, 60 percent, and 75 percent in LN443 cells transfected with control siRNA, siRNA #4, or siRNA #5, respectively, and treated with 2.0 μM STS (FIG. 10C).

LNZ308 cells = experiment: STS-induced DNA fragmentation (sub-G1, FACS) in LNZ308 cells; settings: LNZ308, 2.0 μM STS; control siRNA about 30 percent
Experimental: as §1
LNZ308 cells co-transfected with pcDNA3-GFP and either pSHAG-A or pSHAG-B were treated with 0.1 or 0.5 μM of STS for 24 hours, and DNA fragmentation was assessed.

Bcl2L12 polypeptide = experiment: Endogenous Bcl2L12 polypeptide expression in U87MG cells (Western blot, immunofluorescence); settings: 48 hours post transfection, anti-L12-1 Western blot
Experimental: Down-regulation of Bcl2L12 polypeptide expression via RNA interference was assessed in U87MG cells. Briefly, U87MG cells were co-transfected (1:10 ratio) with 0.5 μg of vector encoding GFP and 5 μg of either pSHAG-Control, pSHAG-Bcl2L12-A, pSHAG-Bcl2L12-B, or pSHAG-Bcl2L12-A+-B. Once transfected, the cells expressing GFP were sorted out by FACS analysis. […] The FACS-sorted cells were assessed for Bcl2L12 polypeptide expression. […] The FACS-sorted cells also were seeded in 24-well plates at a density of 1×10^5 cells, grown in 10% FBS-DMEM, and counted every day for three days.
In another experiment, total cellular lysates of U87MG cells transfected with control siRNA, Bcl2L12-targeting siRNA #4, or Bcl2L12-targeting siRNA #5 were harvested 48 hours post transfection and subjected to western blot analysis using the anti-L12-1 antibody (1 μg/mL).
The following experiments were performed to characterize the anti-Bcl2L12 polypeptide antibodies. U87MG cells stably expressing control or Bcl2L12-targeting shRNA (shL12-1) were subjected to deconvolution immunofluorescence microscopy using the anti-L12-2 antiserum. Cells were counterstained with DAPI. […]
The potential anti-oncogenic impact of Bcl2L12 polypeptide knockdown was assessed in the U87MG human glioma model system. […] Bcl2L12 polypeptide expression was analyzed by western blotting using the anti-L12-1 antibody. […]

pro-caspase-7 = experiment: Anti-L12-2 immunoprecipitation from U87MG cells, Western blot for caspase-7; settings: anti-L12-2 immunoprecipitates
Experimental: To define further the molecular actions of Bcl2L12 polypeptides, the physical interactions with key post-mitochondrial apoptosis signaling molecules were assessed. Anti-L12-2 immunoprecipitates from lysates of LNZ308, U87MG, and 293T cells were subjected to western blot analysis for procaspases 7 and 3 and cytochrome c. Briefly, cells were lysed in IP buffer. Cleared supernatants were incubated with prebleed serum (8 μl) coupled to Protein A-sepharose 4B beads (Sigma) for 1 hour and subsequently with anti-L12-2 antiserum (8 μl) for 1 to 2 hours. For western blot analyses, polypeptides were separated by 4-12% SDS-PAGE, transferred to Hybond PVDF membranes (Amersham), blocked with 5% milk in phosphate-buffered saline with 0.05% Tween 20 (PBS/Tween) for 1 hour, washed with PBS/Tween and incubated with anti-cytochrome c antibodies (0.5 μg/ml; BD Pharmingen), anti-caspase-7 antibodies (0.5 μg/ml, BD Pharmingen), or anti-caspase-3 anitbodies (0.25 μg/ml, BD Transduction Laboratories) in PBS/Tween 20 with 5% milk. The blots were washed with PBS/Tween and developed with goat anti-rabbit IgG (1:10,000) or with goat anti-mouse antibodies (1:10,000) (Pierce) in 5% milk PBS/Tween. […] 1/40 of the lysate used for the immunoprecipitation was loaded to quantify the amount of co-immunoprecipitated caspase-7. […]

[1] = tested on: caspases 2, 3/7, 6, 8, and 9; experiment: Caspase activity profile with fluorogenic peptide substrates in LNZ308 cells; settings: LNZ308, STS 24 hours
Experimental: LNZ308 cells were transfected with control or siRNA oligonucleotide #5, and treated with STS for 24 hours. Subsequently, caspase activity was profiled using caspase-specific fluorogenic peptide substrates assessing the activity status of caspases 2, 3/7, 6, 8, and 9.

Substance | maximum percent DNA fragmentation (LN443 cells) | maximum percent DNA fragmentation (LNZ308 cells) | Bcl2L12 polypeptide levels (Bcl2L12 polypeptide) | co-immunoprecipated pro-caspase-7 (pro-caspase-7) | caspase activity [1]
siRNA #4: Bcl2L12-targeting siRNA oligonucleotide 5′-AAGCUGGUCCGCCUGUCCU-3′; SEQ ID NO:6 (chemistry not given here) | ~60% | ~45% | significant reduction |  | 
siRNA #5: Bcl2L12-targeting siRNA oligonucleotide 5′-UGGUGGAGCUGUUCUGUAG-3′; SEQ ID NO:7 (chemistry not given here) | ~75% | ~55% | significant reduction | significant decrease | enhanced caspase activity
